{"source": "patent US20130045952A1", "about": "“ABA Receptor Agonists for Increased Plant Stress Resistance” (Van Andel Research Institute, priority 2011, published 2013)", "format_in_all_cases": "biochemical", "key": {"His6-PYR1 / biotin-PP2C": {"target": "T1, His6-PYR1 / biotin-PP2C (Arabidopsis thaliana, UniProt O49686)", "T1 construct": "made in house; host or cells: E. coli is stated for PYL1, PYL2 and the PP2Cs, not expressly for PYR1", "T1 sequence (O49686 1-191)": "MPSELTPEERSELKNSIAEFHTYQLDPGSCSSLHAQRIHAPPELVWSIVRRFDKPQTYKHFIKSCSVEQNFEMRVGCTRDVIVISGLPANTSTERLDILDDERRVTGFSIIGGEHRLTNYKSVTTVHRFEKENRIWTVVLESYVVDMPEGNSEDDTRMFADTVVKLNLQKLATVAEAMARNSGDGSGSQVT", "assay": "AlphaScreen luminescence proximity assay, PYR1-PP2C interaction", "conditions": "100 nM His6-PYR1, 100 nM biotin-PP2C, 100 μM agonist; normalized against a pyrabactin control", "description": "(§1) Mutant proteins were expressed as H6GST-fusion proteins and purified by glutathione sepharose chromatography. Protein-protein interactions were determined by luminescence proximity AlphaScreen assay. Biotinylated PP2C proteins for the luminescence proximity assay were generated by in vivo biotinylation of avitag-PP2C fusion proteins. PP2C phosphatase activity was measured by phosphate release from a SnRK2.6 phosphoprotein.\n(§2) Interactions between PYR/PYL and PP2Cs were assessed by luminescence-proximity AlphaScreen technology (Perkin Elmer). Briefly, biotinylated PP2Cs were attached to streptavidin-coated donor beads, and H6-tagged PYR/PYL receptors were attached to nickel-chelated acceptor beads. The donor and acceptor beads were brought into proximity by the interactions between PYR/PYLs and PP2Cs, which were measured with and without ligands. When excited by a laser beam of 680 nm, the donor beam emits singlet oxygen that activates thioxene derivatives in the acceptor beads, which releases photons of 520-620 nm as the binding signal. The experiments were conducted with 100 nM of PP2Cs and PYR/PYL proteins in the presence of 5 ug/ml donor and acceptor beads in a buffer of 50 mM MOPS, pH7.4, 50 mM NaF, […], and 0.1 mg/ml bovine serum albumin. The results were based on an average of three experiments with standard errors typically less than 10% of the measurements.\n(§3) Values were determined in different experiments and normalized against a pyrabactin control. Blank spaces mean no experimental data is available. Key (photon counts (binding signal units) in Alphascreen luminescence proximity assay): “+++ is >75,000; ++ is 25,000−75,000; + is <25,000."}, "His6-PYL3 / biotin-PP2C": {"target": "T2, His6-PYL3 / biotin-PP2C (Arabidopsis thaliana, UniProt Q9SSM7)", "T2 construct": "made in house; host or cells: not expressly stated for PYL3", "T2 sequence (Q9SSM7 1-209)": "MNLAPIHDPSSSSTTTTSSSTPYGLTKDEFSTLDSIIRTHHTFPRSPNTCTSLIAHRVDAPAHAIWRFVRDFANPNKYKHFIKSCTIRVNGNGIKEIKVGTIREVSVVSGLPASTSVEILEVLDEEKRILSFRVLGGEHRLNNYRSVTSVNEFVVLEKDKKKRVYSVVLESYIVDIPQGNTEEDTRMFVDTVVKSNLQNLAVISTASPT", "assay": "AlphaScreen luminescence proximity assay, PYL3-PP2C interaction", "conditions": "100 nM His6-PYL3, 100 nM biotin-PP2C, 100 μM agonist; normalized against a pyrabactin control", "description": "as §1, §2, §3"}, "His6-PYL1 / biotin-PP2C": {"target": "T3, His6-PYL1 / biotin-PP2C (Arabidopsis thaliana, UniProt Q8VZS8)", "T3 construct": "PYL1 (residues 36-211), PYL2 (residues 14-188), and HAB1 (residues 172-511) were prepared as recombinant proteins in E. coli; made in house; host or cells: E. coli", "T3 sequence (Q8VZS8 36-211)": "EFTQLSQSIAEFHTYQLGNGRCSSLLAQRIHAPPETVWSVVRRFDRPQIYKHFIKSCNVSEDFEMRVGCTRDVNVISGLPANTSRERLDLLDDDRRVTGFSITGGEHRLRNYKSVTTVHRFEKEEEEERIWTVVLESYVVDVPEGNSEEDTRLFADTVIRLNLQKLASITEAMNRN", "assay": "AlphaScreen luminescence proximity assay, PYL1-PP2C interaction", "conditions": "100 nM His6-PYL1, 100 nM biotin-PP2C, 100 μM agonist; normalized against a pyrabactin control", "description": "as §1, §2, §3"}, "His6-PYL2 / biotin-PP2C": {"target": "T4, His6-PYL2 / biotin-PP2C (Arabidopsis thaliana, UniProt O80992)", "T4 construct": "PYL2 (residues 14-188), and HAB1 (residues 172-511) were prepared as recombinant proteins in E. coli; made in house; host or cells: E. coli", "T4 sequence (O80992 14-188)": "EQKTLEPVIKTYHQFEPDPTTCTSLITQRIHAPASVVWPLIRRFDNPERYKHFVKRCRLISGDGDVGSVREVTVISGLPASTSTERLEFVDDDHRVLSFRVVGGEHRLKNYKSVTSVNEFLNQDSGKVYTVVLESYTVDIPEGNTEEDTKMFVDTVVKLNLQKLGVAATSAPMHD", "assay": "AlphaScreen luminescence proximity assay, PYL2-PP2C interaction", "conditions": "100 nM His6-PYL2, 100 nM biotin-PP2C, 100 μM agonist; normalized against a pyrabactin control", "description": "as §1, §2, §3"}}, "data": [{"smiles": "CC(=O)c1cccc(N/C=C/C(=O)c2ccc(Cl)c(Cl)c2)c1", "note": "[Compound 15]", "values": [{"measurement": "Stimulation of the interaction between PYR1 and PP2C (binding signal)", "setting": "His6-PYR1 / biotin-PP2C", "value": "+ (+ is <25,000)"}, {"measurement": "Stimulation of the interaction between PYL3 and PP2C (binding signal)", "setting": "His6-PYL3 / biotin-PP2C", "value": "++ (++ is 25,000−75,000)"}, {"measurement": "Stimulation of the interaction between PYL1 and PP2C (binding signal)", "setting": "His6-PYL1 / biotin-PP2C", "value": "+ (+ is <25,000)"}, {"measurement": "Stimulation of the interaction between PYL2 and PP2C (binding signal)", "setting": "His6-PYL2 / biotin-PP2C", "value": "++ (++ is 25,000−75,000)"}]}, {"smiles": "CCCN(CCC)C(=O)[C@@H](CCC(=O)O)NS(=O)(=O)c1ccc(C)cc1", "note": "[Compound 13]", "values": [{"measurement": "Stimulation of the interaction between PYR1 and PP2C (binding signal)", "setting": "His6-PYR1 / biotin-PP2C", "value": "+ (+ is <25,000)"}]}, {"smiles": "O=C(CNS(=O)(=O)c1ccccc1)OCc1ccc(Cl)c(Cl)c1", "note": "[Compound 6]", "values": [{"measurement": "Stimulation of the interaction between PYR1 and PP2C (binding signal)", "setting": "His6-PYR1 / biotin-PP2C", "value": "++ (++ is 25,000−75,000)"}, {"measurement": "Stimulation of the interaction between PYL3 and PP2C (binding signal)", "setting": "His6-PYL3 / biotin-PP2C", "value": "++ (++ is 25,000−75,000)"}, {"measurement": "Stimulation of the interaction between PYL2 and PP2C (binding signal)", "setting": "His6-PYL2 / biotin-PP2C", "value": "+ (+ is <25,000)"}]}, {"smiles": "O=S(=O)(NC[C@@H]1CCCO1)c1ccc(Br)c2ccccc12", "note": "[Compound 12]", "values": [{"measurement": "Stimulation of the interaction between PYR1 and PP2C (binding signal)", "setting": "His6-PYR1 / biotin-PP2C", "value": "+++ (+++ is >75,000)"}, {"measurement": "Stimulation of the interaction between PYL3 and PP2C (binding signal)", "setting": "His6-PYL3 / biotin-PP2C", "value": "+++ (+++ is >75,000)"}]}, {"smiles": "CCOC(=O)C1OC(NC(=O)CSc2nnc(-c3ccccc3OCC)o2)C(C#N)C1C", "note": "(centres unmarked) [Compound 5]", "values": [{"measurement": "Stimulation of the interaction between PYR1 and PP2C (binding signal)", "setting": "His6-PYR1 / biotin-PP2C", "value": "+ (+ is <25,000)"}, {"measurement": "Stimulation of the interaction between PYL3 and PP2C (binding signal)", "setting": "His6-PYL3 / biotin-PP2C", "value": "+ (+ is <25,000)"}, {"measurement": "Stimulation of the interaction between PYL1 and PP2C (binding signal)", "setting": "His6-PYL1 / biotin-PP2C", "value": "+ (+ is <25,000)"}, {"measurement": "Stimulation of the interaction between PYL2 and PP2C (binding signal)", "setting": "His6-PYL2 / biotin-PP2C", "value": "++ (++ is 25,000−75,000)"}]}, {"smiles": "Cc1ccc(C(=O)O)cc1NC(=S)NC(=O)c1ccccc1Cl", "note": "[Compound 14]", "values": [{"measurement": "Stimulation of the interaction between PYR1 and PP2C (binding signal)", "setting": "His6-PYR1 / biotin-PP2C", "value": "+ (+ is <25,000)"}, {"measurement": "Stimulation of the interaction between PYL3 and PP2C (binding signal)", "setting": "His6-PYL3 / biotin-PP2C", "value": "+ (+ is <25,000)"}, {"measurement": "Stimulation of the interaction between PYL2 and PP2C (binding signal)", "setting": "His6-PYL2 / biotin-PP2C", "value": "+ (+ is <25,000)"}]}, {"smiles": "CC1(C)CC(=O)C(/C=N/CCc2ccc(S(N)(=O)=O)cc2)=C(O)C1", "note": "[Compound 10]", "values": [{"measurement": "Stimulation of the interaction between PYR1 and PP2C (binding signal)", "setting": "His6-PYR1 / biotin-PP2C", "value": "+ (+ is <25,000)"}, {"measurement": "Stimulation of the interaction between PYL3 and PP2C (binding signal)", "setting": "His6-PYL3 / biotin-PP2C", "value": "+ (+ is <25,000)"}, {"measurement": "Stimulation of the interaction between PYL2 and PP2C (binding signal)", "setting": "His6-PYL2 / biotin-PP2C", "value": "+ (+ is <25,000)"}]}, {"smiles": "CCCCOc1cccc(C(=O)NC(=S)Nc2ccc(S(N)(=O)=O)cc2)c1", "note": "[Compound 9]", "values": [{"measurement": "Stimulation of the interaction between PYR1 and PP2C (binding signal)", "setting": "His6-PYR1 / biotin-PP2C", "value": "+ (+ is <25,000)"}, {"measurement": "Stimulation of the interaction between PYL3 and PP2C (binding signal)", "setting": "His6-PYL3 / biotin-PP2C", "value": "+ (+ is <25,000)"}, {"measurement": "Stimulation of the interaction between PYL2 and PP2C (binding signal)", "setting": "His6-PYL2 / biotin-PP2C", "value": "+ (+ is <25,000)"}]}, {"smiles": "O=S(=O)(NCc1ccccn1)c1ccc2ccccc2c1", "note": "[Compound 4]", "values": [{"measurement": "Stimulation of the interaction between PYR1 and PP2C (binding signal)", "setting": "His6-PYR1 / biotin-PP2C", "value": "+++ (+++ is >75,000)"}, {"measurement": "Stimulation of the interaction between PYL3 and PP2C (binding signal)", "setting": "His6-PYL3 / biotin-PP2C", "value": "+ (+ is <25,000)"}]}, {"smiles": "CC(C)c1ccccc1OCCNS(=O)(=O)c1ccc2ccccc2c1", "note": "[Compound 7]", "values": [{"measurement": "Stimulation of the interaction between PYR1 and PP2C (binding signal)", "setting": "His6-PYR1 / biotin-PP2C", "value": "++ (++ is 25,000−75,000)"}, {"measurement": "Stimulation of the interaction between PYL3 and PP2C (binding signal)", "setting": "His6-PYL3 / biotin-PP2C", "value": "+ (+ is <25,000)"}, {"measurement": "Stimulation of the interaction between PYL1 and PP2C (binding signal)", "setting": "His6-PYL1 / biotin-PP2C", "value": "++ (++ is 25,000−75,000)"}, {"measurement": "Stimulation of the interaction between PYL2 and PP2C (binding signal)", "setting": "His6-PYL2 / biotin-PP2C", "value": "++ (++ is 25,000−75,000)"}]}, {"smiles": "O=S(=O)(NCCOc1ccccc1)c1ccc2ccccc2c1", "note": "[Compound 8]", "values": [{"measurement": "Stimulation of the interaction between PYR1 and PP2C (binding signal)", "setting": "His6-PYR1 / biotin-PP2C", "value": "+ (+ is <25,000)"}, {"measurement": "Stimulation of the interaction between PYL3 and PP2C (binding signal)", "setting": "His6-PYL3 / biotin-PP2C", "value": "++ (++ is 25,000−75,000)"}, {"measurement": "Stimulation of the interaction between PYL2 and PP2C (binding signal)", "setting": "His6-PYL2 / biotin-PP2C", "value": "+ (+ is <25,000)"}]}]}
